Test results: patent US20030040531A1, “Remedies for reperfusion injury containing integrin alphanubeta 3 antagonist” (priority 2000, published 2003)

Key:
[1] = test system: rat acute myocardial ischemia-reperfusion model; assay: rat acute myocardial ischemia-reperfusion model; format: in vivo; details: for myocardial infarct size (proportion of the infarct area in the left ventricle): average value±SE, n=5
Protocol: Male Wistar rats (330 to 420 g) were subjected to controlled respiration using an artificial respirator under pentobarbital anesthesia (60 mg/kg, i.p.), and the blood pressure and the heart rate were measured through a blood pressure amplifier and a heart rate unit. Further, for the ischemia of the myocardium, an increase in voltage of R-wave in the II leading in an electrocardiogram was confirmed with a monitor through a bioelectricity amplifier. The rats underwent thoracotomy, and the coronary artery, together with the myocardium, was then occluded using a suture with a needle. Ischemia for 3 min and reperfusion for 5 min were followed by ischemia for 45 min and reperfusion for 45 min. Medicaments tested and concentrations thereof were 3 mg/kg+3 mg/kg/hr (bolus +infusion) (L; low dose group) and 6 mg/kg+3 mg/kg/hr (bolus +infusion) (H; high dose group) for the compound represented by formula (V); 3 mg/kg+3 mg/kg/hr (bolus +infusion) for the compound represented by formula (VI); 3 mg/kg+3 mg/kg/hr (bolus +infusion) (L; low dose group) and 6 mg/kg+3 mg/kg/hr (bolus +infusion) (H; high dose group) for the compound represented by formula (IV); 5 mg/kg+5 mg/kg/hr(bolus +infusion)(L; low dose group) and 10 mg/kg+10 mg/kg/hr (bolus +infusion) (H; high dose group) for the compound represented by formula (VII); and 1 mg/kg+1 mg/kg/hr (bolus+infusion) (L; low dose group) and 6 mg/kg+6 mg/kg/hr (bolus+infusion) (H; high dose group) for the compound represented by formula (VIII). For a control group (group C), a 10% (v/v) dimethyl sulfoxide/5% glucose solution was administered, and each medicament was dissolved in the same solvent. The dose volume was 3 ml/kg+3 ml/kg/h (bolus+infusion). The medicament was continuously administered through an infusion pump for the period starting with one min before the ischemia and ending with the completion of the experiment. After reperfusion for 45 min, the rats were slaughtered by excessive administration of pentobarbital, and the heart was removed. After perfusion with a Ringer solution, perfusion staining was carried out with 1.5% triphenyltetrazolium chloride, and the proportion of the infarct area in the left ventricle was quantitatively determined. For animals used in the experiment, each group consisted of 5 rats.

[2] = test system: platelet aggregation; assay: inhibition of platelet aggregation, rat; format: cell-based; details: read-out: concentration (IC50) necessary for inhibition of platelet aggregation
[3] = test system: platelet aggregation; assay: inhibition of platelet aggregation, human; format: cell-based; details: read-out: concentration (IC50) necessary for inhibition of platelet aggregation
[4] = test system: platelet aggregation; assay: inhibition of platelet aggregation, hamster; format: cell-based; details: Mesocricetus auratus, read-out: concentration (IC50) necessary for inhibition of platelet aggregation
Protocol: The platelets aggregation was measured by the Born's method (G. V. R. Born, Nature 194, 927 (1962)). Blood was collected through an injector containing a 3.8% sodium citrate solution from the aorta abdominalis (final concentration: 0.38%). Centrifugation was carried out at 900 rpm (about 80× g) for 10 min to collect platelet-rich plasma, and centrifugation was further carried out at 3,000 rpm (about 880× g) for 10 min to collect platelet-poor plasma, followed by the measurement of aggregation with an aggregometer. In this case, ADP (final concentration: 5 μM) was used as an aggregation inducer.

[5] = test system: hamster acute ischemia-reperfusion model; assay: hamster acute ischemia-reperfusion model; format: in vivo; details: for reduction of myocardial infarct size (IS/AR): sodium salt mixed with arginine; for myocardial infarct size (IS/AR): average±SE, n=5, solvent administration group 49.3±7.1%
Protocol: A polyethylene tube was inserted into the carotid artery and the survical vein of Syrian male hamsters (10 to 13 weeks old) under pentobarbital anesthesia (60 mg/kg, i.p.). An electrocardiogram (I or II leading) was measured through a bioelectricity amplifier by leading from electrodes which had pierced the limbs. A polyethylene tube was inserted into the trachea, and artificial respiration was carried out with an artificial respirator (amount of ventilation: 10 ml/kg/stroke, number of times of ventilation: 70 strokes/min). The blood pressure was measured through a blood pressure amplifier, and the heart rate was measured with a heart rate unit using blood pressure as a trigger. The animals underwent thoracotomy, and the coronary, together with the myocardium, was then occluded using a suture with a needle. Ischemia for 90 min was followed by reperfusion for 2 hr to quantitatively determine myocardial infarct size.
A sodium salt of the compound represented by formula (IV) was mixed with a 2-fold equivalent of arginine, and the mixture was dissolved in a 5% glucose solution. The dose volume was 2 ml/kg+2 ml/kg/h (bolus +infusion). For a solvent administration group, a 0.64 mg/ml arginine/5% glucose solution was used. The medicament was continuously administered through an infusion pump for the period starting with one min before ischemia and ending with the completion of the experiment. After reperfusion for 2 hr, the animals were slaughtered by intraveneous injection of 1,000 U/kg of heparin and an excessive amount of pentobarbital, and the heart was then removed. After perfusion with a Ringer solution, blood was washed away from the heart, and the coronary artery was re-occluded. After the reocclusion, 0.4 ml of 0.1% Evans blue was injected through the aorta. The heart was rinsed with physiological saline and was then cut into about 1 mm slices. For each slice, the left ventricle (LV) was separated, and the weight of the left ventricle and the weight of the area-at-risk (AR) were measured. The area-at-risk was stained with a 50 mM Tris.HCl (pH 7.4, 37° C.) buffer containing 1.5% triphenyltetrazolium chloride heated at 37° C., and the weight of the infarct area (IS; infarct size) was measured. The measurement of the weight was carried out under a blind.

[6] = 3 mg/kg+3 mg/kg/hr (bolus+infusion)
[7] = 6 mg/kg+3 mg/kg/hr (bolus+infusion), group H

Q: Which “reduction of myocardial infarct size as compared with group C” value [1, 6] does the source give for `O=C(NCC(NS(=O)(=O)c1ccccc1)C(=O)O)c1ccc(N2CCC(NC3=NCCCN3)CC2)c(F)c1` (stereo in doubt) [formula (IV), (2S)-Benzenesulfonylamino-3-[3-fluoro-4-{4-(1,4,5,6-tetrahydropyrimidin-2-ylamino)-piperidin-1-yl}benzoylamino]propionic Acid] here?
A: The value was 17.8%.

Q: What about the “myocardial infarct size (proportion of the infarct area in the left ventricle)” value [1, 6] of the same molecule?
A: Its value is 32.3±4.9%.

Q: What about the “reduction of myocardial infarct size as compared with group C” value [1, 7] of the same molecule?
A: Its value is 35.1%.

Q: What about the “myocardial infarct size (proportion of the infarct area in the left ventricle)” value [1, 7] of the same molecule?
A: Its value is 25.5±1.5%.

Q: And the “influence on the blood pressure and the heart rate” value ([1]; doses at which the infarct inhibition action could be obtained)?
A: The value was “no influence”.

Q: And the IC50 [2]?
A: The IC50 was over 100000 nM.

Q: And the IC50 [3]?
A: Its IC50 is 55 nM.

Q: What about the IC50 [4] of the same molecule?
A: The IC50 was 1900 nM.

Q: And the “reduction of myocardial infarct size (IS/AR)” value ([5]; group H 1.0 mg/kg+1.0 mg/kg/h (bolus+infusion), significant difference)?
A: The value was 49.3%.

Q: What about the “myocardial infarct size (IS/AR)” value ([5]; group H 1.0 mg/kg+1.0 mg/kg/h) of the same molecule?
A: Its value is 25.0±2.8%.

Q: And the “reduction of myocardial infarct size (IS/AR)” value ([5]; group L 0.33 mg/kg+0.33 mg/kg/h (bolus+infusion))?
A: The value was 30.9%.

Q: And the “myocardial infarct size (IS/AR)” value ([5]; group L 0.33 mg/kg+0.33 mg/kg/h)?
A: Its value is 34.0±5.0%.
